Like-named read-outs stand apart in the source and are kept apart here. Residues, ends and D or L forms follow the SMILES beside them. *: point of attachment. Decanoyl = CCCCCCCCCC(=O)*; CH2Cl = ClC*
Experiments:
SKI-1 [1] = target: T1, SKI-1 (Cricetulus griseus, UniProt Q9Z2A8); assay: cell-based; design: species or system hamster
T1 construct: endogenous in cells; host or cells: CHOK1
T1 sequence (Q9Z2A8 187-1052): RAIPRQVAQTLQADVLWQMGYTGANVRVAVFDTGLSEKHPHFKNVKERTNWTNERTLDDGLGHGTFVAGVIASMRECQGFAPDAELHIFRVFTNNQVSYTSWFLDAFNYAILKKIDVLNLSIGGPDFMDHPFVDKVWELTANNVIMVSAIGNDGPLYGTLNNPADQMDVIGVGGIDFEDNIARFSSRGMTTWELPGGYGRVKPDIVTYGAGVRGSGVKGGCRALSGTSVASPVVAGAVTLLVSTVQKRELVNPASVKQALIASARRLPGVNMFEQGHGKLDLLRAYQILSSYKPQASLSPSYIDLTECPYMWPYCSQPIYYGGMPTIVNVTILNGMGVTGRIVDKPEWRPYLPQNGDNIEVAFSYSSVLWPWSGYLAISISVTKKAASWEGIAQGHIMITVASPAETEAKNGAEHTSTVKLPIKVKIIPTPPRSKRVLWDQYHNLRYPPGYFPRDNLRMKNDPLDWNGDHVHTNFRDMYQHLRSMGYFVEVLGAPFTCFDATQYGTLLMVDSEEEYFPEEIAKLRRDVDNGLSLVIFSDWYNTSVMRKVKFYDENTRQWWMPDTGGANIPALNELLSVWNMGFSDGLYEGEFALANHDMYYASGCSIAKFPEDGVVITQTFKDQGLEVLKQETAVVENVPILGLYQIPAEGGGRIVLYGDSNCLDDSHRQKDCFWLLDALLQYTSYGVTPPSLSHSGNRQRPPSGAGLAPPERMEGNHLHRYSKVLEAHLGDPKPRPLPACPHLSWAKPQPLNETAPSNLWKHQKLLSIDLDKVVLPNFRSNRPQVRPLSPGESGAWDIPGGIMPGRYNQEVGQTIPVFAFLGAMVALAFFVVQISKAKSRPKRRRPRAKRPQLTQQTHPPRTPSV

SKI-1 [2] = target: T1, SKI-1; assay: cell-based
[3] = tested on: endogenous Furin-like PCs; assay: Ex vivo processing of proPDGF-A in HEK293 cells stably expressing PDGF-A-V5; assay type: cell-based, human
SKI-1 [4] = target: T2, SKI-1 (Homo sapiens, UniProt Q14703); assay type: cell-based
T2 construct: For SKI-1, several cell lines expressing SKI-1 could be used; endogenous in cells; host or cells: HuH7
T2 sequence (Q14703 187-1052): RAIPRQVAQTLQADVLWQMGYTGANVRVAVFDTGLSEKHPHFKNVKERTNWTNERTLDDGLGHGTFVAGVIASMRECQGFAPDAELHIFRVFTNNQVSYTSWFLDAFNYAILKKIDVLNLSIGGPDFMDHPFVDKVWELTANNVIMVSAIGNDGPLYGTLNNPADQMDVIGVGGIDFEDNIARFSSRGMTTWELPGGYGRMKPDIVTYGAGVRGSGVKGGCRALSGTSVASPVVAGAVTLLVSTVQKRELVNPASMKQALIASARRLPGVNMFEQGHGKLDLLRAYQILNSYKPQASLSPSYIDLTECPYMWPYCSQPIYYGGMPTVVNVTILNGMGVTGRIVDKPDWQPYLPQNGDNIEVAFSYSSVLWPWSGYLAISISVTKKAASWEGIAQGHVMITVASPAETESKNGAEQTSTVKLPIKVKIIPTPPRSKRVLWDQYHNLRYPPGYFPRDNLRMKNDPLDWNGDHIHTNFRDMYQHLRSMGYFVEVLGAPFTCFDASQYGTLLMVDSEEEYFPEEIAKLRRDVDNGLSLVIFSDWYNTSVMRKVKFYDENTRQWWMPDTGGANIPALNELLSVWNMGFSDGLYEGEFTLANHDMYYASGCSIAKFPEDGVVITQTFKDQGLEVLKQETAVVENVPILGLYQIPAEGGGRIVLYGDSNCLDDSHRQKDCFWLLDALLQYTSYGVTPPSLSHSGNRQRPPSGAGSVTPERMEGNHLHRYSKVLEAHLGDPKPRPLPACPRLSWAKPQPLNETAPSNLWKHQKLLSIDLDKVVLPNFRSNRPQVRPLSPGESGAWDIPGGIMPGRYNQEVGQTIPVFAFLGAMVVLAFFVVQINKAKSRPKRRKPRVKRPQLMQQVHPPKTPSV

[5] = target: T3, SKI-1 (endogenous enzyme of CHOK1 cells) (UniProt Q9Z2A8); assay: cell-based or functional assay
T3 sequence: T1 sequence (Q9Z2A8 187-1052)

[6] = target: endogenous Furin-like PCs; assay: cell-based or functional assay
Furin-like PCs [7] = assay: CELISA detection of HA tag on HeLa cells expressing Furin-like PC bait chimera; assay type: cell-based, human; conditions: for effect of serpin expression on presence of the HA tag at the cell surface: PCfur-1.6 cells transfected or adenovirus infected
Method: A CELISA test was then used to confirm the results obtained by the FACS analysis (FIG. 7A). Pools of cells transfected with the chimera were rinsed twice with PBS. Then, at room temperature, the following steps were performed. Cells were fixed in PBS and 4% formalin 10 min. They were then rinsed twice with PBS. The anti-HA/peroxidase antibody diluted 1/8000 in PBS and 1% powdered milk (filtered) was then added. The cells were incubated 30 minutes on Labquake™. Again, the cells were rinsed twice with PBS. The substrate (2,2′ azino-Bis (3-ethylobenzathiazoline-6-sulfonic acid); Sigma) was added to the cells and the mixture was incubated 15 minutes. The OD was read at 405 nm and 470 nm for turbidity, and the subtraction of the reading at both wavelengths (405-470) gave normalized product absorbance. The CELISA assay was performed in the presence of different concentrations of dec-RVKR-cmk (SEQ ID NO:35). The signal/noise ratio obtained in the presence of 60 μM of dec-RVKR-CMK (SEQ ID NO: 35) was above 15. The CELISA (FIG. 7B) confirmed that the presence of the inhibitor increases the detection of HA at the surface of the cells.
Some PCfur-1.6 cells were transfected with an expression vector containing a cDNA coding for either α1-PDX or the α1-AT using lipofectamine as described by the manufacturer (Invitrogen) (less than 20% efficacy), or infected using recombinant adenovirus (Ad) as described (Benjannet et al., 2004) (near 100% efficacy).

NARC-1/PCSK9 = assay: Western blot of cells expressing NARC-1/PCSK9 bait (SN11) chimera; assay type: cell-based, human; conditions: 50 μM, 6 h
Text: A specific CELISA to the NARC-1/PCSK9 was designed using the approach described in Example 1 above. Chimeras were constructed using sequences known to be cleavable by NARC-1/PCSK9 (SSVFAQ-SIPWN (SEQ ID NO: 31)), or EEDSSVFAQ-SIPWN (SEQ ID NO: 55) combined to full length ACE2-CT segment, and then used to transfect HuH7. Chimeras are also similarly constructed using KHQKLL-SIDLD (SEQ ID NO: 32)). HuH7 was selected amongst 20 cell lines as being one in which the NARC-1/PCSK9 expression level the highest.
Cells expressing chimera containing the NARC/PCSK9 bait SSVFAQ-SIPWN (SEQ ID NO: 31) (SN11) were analyzed by Western blot. Cells were treated or not for 6 h with 50 μM of dec-RVKR-cmk (SEQ ID NO: 35) to inhibit endogenous Furin-like enzymes and thus indirectly activate NARC/PCSK9. Cells express an approximately equal amounts of ER- (endo H sensitive, not shown) and Golgi-associated (endo H resistant, not shown) SN11 chimera as observed using an HA mAb. […] The Western blot protocol used was a standard one using a monoclonal commercial anti-HA antibody coupled to horseradish peroxidase (Sigma; used as proposed by the manufacturer) at a final dilution of 1:5000.

Furin-like PCs [8] = assay: FACS detection of HA tag on HeLa cells expressing Furin-like PC bait chimera; assay type: cell-based, human
Method: HeLa cells were submitted to two rounds of fluorescence activated cell sorting (FACS) using Alexa488™ as fluorophore with a MoFlo™ cell sorter (Cytomation, Fort Collins, Colo., USA) to obtain pools of cells expressing the Fc (Fc positive) but negative for the HA tag (HA negative) (FIG. 7A, darker dots). The presence of Fc tags was the sign that cleavage by Furin-like PCs at the bait sequence KRIRLRR←SPD (SEQ ID NO: 29) had released the HA tag.
This isolated pool of cells was incubated for 6 h with 60 μM of dec-RVKR-cmk (SEQ ID NO: 35), a potent PC-inhibitor, and submitted to FACS analysis.
The FACS sorted cells pool was then used to isolate individual clones: 10 clones were isolated of which one (clone PCfur-1.6) expresses a large amount of Fc (i.e. […] chimera) at the cell surface.

Furin-like PCs [9] = assay: Western blot of cell-surface biotinylated proteins of PCfur-1.6 cells immunoprecipitated with HA antibody; assay type: cell-based, human; conditions: PCfur-1.6 cells infected with recombinant adenovirus, 1× and 2×
Text: Similar confirmation was obtained using Western blots of cell-surface biotinylated proteins, immunoprecipitated with the HA-antibody and detected on Western using horseraddish peroxidase coupled streptavidin (WB streptavidin-HRP). The Western blot protocol used was a standard one using a monoclonal commercial anti-HA antibody coupled to horseraddish peroxidase (Sigma; used as proposed by the manufacturer) at a final dilution of 1:5000. […] This confirms that the HA reappears specifically in the presence of a PCs inhibitor. […] Small molecules were also identified with the assay (see Example 7).

## CCCCCCCCCC(=O)N[C@H](C(=O)N[C@@H](CO)C(=O)N[C@@H](CCCNC(=N)N)C(=O)N[C@@H](CCCNC(=N)N)C(=O)N[C@@H](CC(C)C)C(=O)N[C@@H](CC(C)C)C(=O)CCl)[C@@H](C)CC [dec-ISRRLL-cmk] (Decanoyl-ISRRLL-CH2Cl)
SKI-1 [1]
  IC50: ~20 µM

## CCCCCCCCCC(=O)N[C@@H](CCCNC(=N)N)C(=O)N[C@@H](CCCNC(=N)N)C(=O)N[C@@H](CC(C)C)C(=O)N[C@@H](CC(C)C)C(=O)CCl [dec-RRLL-cmk, reference compound] (Decanoyl-RRLL-CH2Cl)
SKI-1 [2]
  IC50: ≤ 1 µM

## CCCCCCCCCC(=O)N[C@@H](Cc1ccc(O)cc1)C(=O)N[C@H](C(=O)N[C@@H](CO)C(=O)N[C@@H](CCCNC(=N)N)C(=O)N[C@@H](CCCNC(=N)N)C(=O)N[C@@H](CC(C)C)C(=O)N[C@@H](CC(C)C)C(=O)CCl)[C@@H](C)CC [dec-YISRRLL-cmk] (Decanoyl-YISRRLL-CH2Cl)
[3]
  inhibition of ex vivo processing of proPDGF-A (in words): not an effective inhibitor
SKI-1 [2]
  IC50: ≤ 1 µM
SKI-1 [1]
  IC50: ~7 µM
SKI-1 [4]
  re-appearance of the HA tag at the cell surface (FACS): A reversion of the level of the chimeric protein to that of the uncleaved form

## dec-ISRRLL-cmk (peptide)
[5]
  50% inhibition of the processing of endogenous proSREBP-2 in CHOK1 cells (Western blot): 20 µM

## dec-RRLL-cmk (peptide)
[6]
  inhibition of proPDGF-A processing in HEK293 cells (Western blot of media): > 100 µM

## dec-RVKR-cmk (Decanoyl-RVKR-CH2Cl)
Furin-like PCs [7]; HeLa cell pool, 60 μM inhibitor
  signal/noise ratio in CELISA: above 15
[3]; HEK293 cells, overnight, Western blot
  concentration that completely inhibits proPDGF-A processing: ~3 µM
NARC-1/PCSK9
  level of Golgi-associated HA tag versus ER-associated (indirect activation of NARC-1/PCSK9): a substantial decrease in the level of the Golgi-associated HA tag versus the ER-one
Furin-like PCs [8]; clone PCfur-1.6, as little as 30 μM
  conversion of cleaved chimera into uncleaved form exhibiting the HA-tag at the cell surface (FACS): completely converted into an uncleaved form
Furin-like PCs [8]; stable HeLa cell pool, 60 μM, 6 h
  re-appearance of the HA tag at the cell surface (FACS): very significant reversion of the level of the chimeric protein to that of the uncleaved form

## α1-AT: serpin α1-antitrypsin, which does not inhibit PCs; control
Furin-like PCs [7]
  effect of serpin expression on presence of the HA tag at the cell surface: had no effect
Furin-like PCs [9]
  HA-tagged chimera at the cell surface by Western blot: no chimeric HA-tagged chimera could be detected

## α1-PDX: serpin variant, a known PCs inhibitor, expressed from cDNA or adenovirus
Furin-like PCs [7]; PCfur-1.6 cells infected with recombinant adenovirus
  increase in absorbance in CELISA, Ad:PDX compared to Ad:AT: ~7 fold
Furin-like PCs [7]
  effect of serpin expression on presence of the HA tag at the cell surface: increased the presence of the HA tag at the cell surface
Furin-like PCs [9]
  HA-tagged chimera at the cell surface by Western blot: the presence of the HA tag at the cell surface of these cells could be observed
